From patent US8680152B2, “Cathepsin inhibitors for the treatment of bone cancer and bone cancer pain” (Virobay, Inc., priority 2011, dated 2014) come the findings set out here.

The structures appear in SMILES notation. Where two headings read alike, the source gives them in different places.

One data set deals with human osteoclasts. The experiment in a line: Inhibition of bone resorption in vitro (human osteoclasts on bovine bone slices). The format is cell-based. The note with it: CTX/TRACP5b, FIG. 7. On the procedure:
FIG. 7. Inhibition of Bone Resorption In Vitro. […] Compounds of the present invention were added to cultured human differentiated bone marrow-derived osteoclasts cultured on bovine bone slices allowing them to resorb bone. Tartrate-resistant acid phosphatase 5b activity (TRACP 5b) was measured in the culture medium as an index of the number of osteoclasts formed in each well, and C-terminal cross-linked telopeptides of type 1 collagen (CTX) was measured in the culture medium to quantitate bone resorption. […] The irreversible protease inhibitor E64 as well as the reversible specific cathepsin K protease inhibitor odanacatib were included as assay controls.
Compound A was assessed in an in vitro assay for its efficacy in blocking resorption activity of human osteoclasts in vitro. Bone marrow-derived human osteoclast precursor cells were cultured on bovine bone slices for 7 days in conditions that allowed osteoclast differentiation, and allowing them to differentiate into bone-resorbing osteoclasts. After completion of osteoclast differentiation at day 7, the culture medium was removed and new culture medium for assessing osteoclast activity was added. Test compounds including Compound A was added to the cultures at this stage on day 7. Cultures were then allowed to continue for an additional 3 days allowing them to resorb bone. Concentrations of Compound assessed were 1, 3, 10, 30, 100, 300, and 1000 nM in 8 replicates. Tartrate-resistant acid phosphatase 5b activity (TRACP 5b) was measured from the culture medium collected on day 7 indicating the number of mature osteoclasts formed in each well before adding compounds. C-terminal cross-linked telopeptides of type 1 collagen (CTX) were measured form the culture medium collected at day 10 to quantitate bone resorption during days 7-10. […] The study was performed in […] with each containing a baseline group including vehicle, a control group with a reference compound E64, and 7 concentrations of the test compound to determine an EC50 for inhibition of resorption activity.

Data set [1] addresses T1, Cathepsin K (huRab), humanized rabbit cathepsin K enzyme (Oryctolagus cuniculus, UniProt P43236).
T1 sequence (P43236 1-329 Y175D/V274L): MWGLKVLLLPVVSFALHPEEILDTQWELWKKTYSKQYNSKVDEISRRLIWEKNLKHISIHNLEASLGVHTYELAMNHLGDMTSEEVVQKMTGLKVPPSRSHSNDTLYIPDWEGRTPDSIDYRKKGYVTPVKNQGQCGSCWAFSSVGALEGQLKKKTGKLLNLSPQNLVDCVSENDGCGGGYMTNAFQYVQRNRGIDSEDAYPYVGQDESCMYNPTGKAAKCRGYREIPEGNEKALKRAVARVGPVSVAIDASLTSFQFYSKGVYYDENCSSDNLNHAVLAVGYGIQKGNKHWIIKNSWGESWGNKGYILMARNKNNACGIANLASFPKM
The experiment in a line: Cathepsin K (huRab) assay. The format is biochemical. On the procedure:
FIG. 5. Cathepsin inhibitory profiles for Compound A, Compound B, and Compound C. All human enzymes with the exception of CatK HuRab. This is a humanized rabbit cathepsin K enzyme where the key amino acids in the active site of rabbit cathepsin K have been converted to match the amino acids found in the active site of human cathepsin K. The remainder of the enzyme is rabbit. Methods are as set forth in the Examples.
(§1) Solutions of test compounds in varying concentrations were prepared in 10 μL of dimethyl sulfoxide (DMSO) and then diluted into assay buffer (40 μL, comprising: MES, 50 mM (pH 5.5); EDTA, 2.5 mM; and DTT, 2.5 mM). Human cathepsin K (0.0906 pMoles in 25 μL of assay buffer) was added to the dilutions. The assay solutions were mixed for 5-10 seconds on a shaker plate, covered and incubated for 30 min at room temperature. Z-Phe-Arg-AMC (4 nMoles in 25 μL of assay buffer) was added to the assay solutions and hydrolysis was followed spectrophotometrically at (λ 460 nm) for 5 min. Apparent inhibition constants (Ki) were calculated from the enzyme progress curves using standard mathematical models.

The target in the next data set is Human cathepsin S (Homo sapiens, UniProt P25774). The experiment in a line: Cathepsin S assay. The format is biochemical. The method, then: (§2) Solutions of test compounds in varying concentrations were prepared in 10 μL of dimethyl sulfoxide (DMSO) and then diluted into assay buffer (40 μL, comprising: MES, 50 mM (pH 6.5); EDTA, 2.5 mM; and NaCl, 100 mM); β-mercaptoethanol, 2.5 mM; and BSA, 0.00%. Human cathepsin S (0.05 pMoles in 25 μL of assay buffer) was added to the dilutions. The assay solutions were mixed for 5-10 seconds on a shaker plate, covered and incubated for 30 min at room temperature. Z-Val-Val-Arg-AMC (4 nMoles in 25 μL of assay buffer containing 10% DMSO) was added to the assay solutions and hydrolysis was followed spectrophotometrically (at λ 460 nm) for 5 min. Apparent inhibition constants (Ki) were calculated from the enzyme progress curves using standard mathematical models.

The target in a further data set is Human Cathepsin V (Homo sapiens, UniProt O60911). The experiment in a line: Cathepsin V assay. As to conditions: for inhibition at 0.1 µM: single data point of 100 nM. The format is biochemical. The method, then:
The assays were performed similarly to those described above. Human Cathepsin V: The buffer used to assay this enzyme consisted of: 50 mM MES (pH 6.5), 2.5 mM DTT, 2.5 mM EDTA, 100 mM NaCl, 0.01% BSA and 10% DMSO. Recombinant human cathepsin V was supplied at 2.0 nM. Substrate, Z-Phe-Arg-AMC, was supplied at 25 μM. Apparent inhibition constants (Ki) were calculated from the enzyme progress curves using standard mathematical models.

The target in another data set is cathepsin B (Homo sapiens, UniProt P07858). The experiment in a line: Cathepsin B assay. The format is biochemical. The method, then: as §1, with “in 101” for “in 10”, “comprising: N,N-bis(2-hydroxyethyl)-2-aminoethanesulfonic acid (BES),” for “comprising: MES,”, “(pH 6); polyoxyethylenesorbitan monolaurate, 0.05%;” for “(pH 5.5); EDTA, 2.5 mM;”, “and dithiothreitol (DTT),” for “and DTT,”, “cathepsin B (0.025” for “cathepsin K (0.0906”, “temperature. Z-FR-AMC (20” for “temperature. Z-Phe-Arg-AMC (4”

The next data set addresses T2, Human cathepsin F (Homo sapiens, UniProt Q9UBX1).
T2 sequence (Q9UBX1 271-484): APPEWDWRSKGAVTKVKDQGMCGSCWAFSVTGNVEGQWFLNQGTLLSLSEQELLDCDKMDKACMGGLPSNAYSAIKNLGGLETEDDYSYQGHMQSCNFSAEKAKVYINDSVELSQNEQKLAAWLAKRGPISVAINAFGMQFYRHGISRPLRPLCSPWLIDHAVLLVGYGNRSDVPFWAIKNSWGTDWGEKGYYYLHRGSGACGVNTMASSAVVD
The experiment in a line: Cathepsin F assay. The format is biochemical. The method, then: as §2, with “DTT,” for “β-mercaptoethanol,”, “0.01%.” for “0.00%.”, “F (0.1” for “S (0.05”, “Z-Phe-Arg-AMC (2” for “Z-Val-Val-Arg-AMC (4”, “Apparent inhibition constants (Ki) were calculated from the enzyme progress curves using standard mathematical models.” left out

Another data set concerns the target cathepsin L (Homo sapiens, UniProt P07711). The experiment in a line: Cathepsin L assay. As to conditions: for inhibition at 0.1 µM: single data point of 100 nM. Format: biochemical. The method, then:
as §1, with “cathepsin L (0.05” for “cathepsin K (0.0906”, “Z-Phe-Arg-AMC (1” for “Z-Phe-Arg-AMC (4”

For data set [2], the system named is multiple human cathepsin enzymes. The experiment in a line: Cathepsin inhibitory profile on multiple cathepsin enzymes. The format is biochemical. An excerpt: FIG. 1. […] Methods are similar to those set forth in the Biological Examples.
The mark [3] stands for this setting: tested at one concentration, 100 nM.

Chain of Human Cathepsin V (O60911 114-334): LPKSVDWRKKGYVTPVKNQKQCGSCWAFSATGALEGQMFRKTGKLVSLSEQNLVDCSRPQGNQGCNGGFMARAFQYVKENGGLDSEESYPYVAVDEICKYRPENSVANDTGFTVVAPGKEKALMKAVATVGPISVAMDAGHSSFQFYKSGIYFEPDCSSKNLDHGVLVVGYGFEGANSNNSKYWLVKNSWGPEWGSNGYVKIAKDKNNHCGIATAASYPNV
Chain of cathepsin L (P07711 114-333): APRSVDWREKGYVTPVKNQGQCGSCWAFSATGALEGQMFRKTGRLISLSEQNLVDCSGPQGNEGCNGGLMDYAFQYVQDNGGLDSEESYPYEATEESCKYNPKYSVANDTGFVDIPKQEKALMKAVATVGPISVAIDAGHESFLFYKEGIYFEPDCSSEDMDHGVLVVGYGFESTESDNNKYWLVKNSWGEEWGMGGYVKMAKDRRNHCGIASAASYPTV
Chain of Human cathepsin S (P25774 115-331): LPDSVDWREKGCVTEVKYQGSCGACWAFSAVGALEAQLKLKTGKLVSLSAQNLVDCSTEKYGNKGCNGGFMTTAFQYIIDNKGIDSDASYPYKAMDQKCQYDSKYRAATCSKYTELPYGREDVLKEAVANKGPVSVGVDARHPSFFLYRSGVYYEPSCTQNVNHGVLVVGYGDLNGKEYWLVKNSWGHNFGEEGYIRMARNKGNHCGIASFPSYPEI

For the compound `CC[C@H](NC(=O)[C@H](CS(=O)(=O)c1cccc(S(C)(=O)=O)c1)N[C@@H](c1ccc(F)cc1)C(F)(F)F)C(=O)C(=O)NC1CC1` [Compound B, (S)—N-Cyclopropyl-3-((R)-3-((3-(methylsulfonyl)phenyl)sulfonyl)-2-(((S)-2,2,2-trifluoro-1-(4-fluorophenyl)ethyl)amino)propanamido)-2-oxopentanamide], in the data set on human osteoclasts, the “inhibition of bone resorption in vitro” value was “inhibit bone resorption in vitro, with similar potency to Compound A”.

As to `CC[C@H](NC(=O)[C@H](CS(=O)(=O)Cc1cccnc1)N[C@@H](c1ccc(F)cc1)C(F)(F)F)C(=O)C(=O)NC1CC1` [Compound F, (S)—N-cyclopropyl-2-oxo-3-((R)-3-((pyridin-3-ylmethyl)sulfonyl)-2-(((S)-2,2,2-trifluoro-1-(4-fluorophenyl)ethyl)amino)propanamido)pentanamide], the IC50 in data set [1] is 28 nM; against Human cathepsin S it was 0.34 nM; on Human Cathepsin V it was less than 0.25 nM; against cathepsin B, 2.5 nM; on Human cathepsin F, 74 nM; against cathepsin L, 0.3 nM. For the same compound, the “inhibition of bone resorption in vitro” value in the data set on human osteoclasts is “inhibit bone resorption in vitro, with similar potency to Compound A”.

As to `CC[C@H](NC(=O)[C@H](CC(F)(F)CC1CC1)N[C@@H](c1ccc(F)cc1)C(F)(F)F)C(=O)C(=O)NC1CC1` [Compound E, (S)-5-cyclopropyl-N—((S)-1-(cyclopropylamino)-1,2-dioxopentan-3-yl)-4,4-difluoro-2-(((S)-2,2,2-trifluoro-1-(4-fluorophenyl)ethyl)amino)pentanamide], the IC50 is 0.332 nM at Human cathepsin S, less than 100 nM on Human Cathepsin V (setting [3]), less than 100 nM on cathepsin B and less than 100 nM at cathepsin L (setting [3]). For the same compound, the inhibition at 0.1 µM was no less than 98% on Human Cathepsin V; no less than 98% against cathepsin B (one concentration, 100 nM); no less than 98% against cathepsin L. Moreover, the “inhibition of bone resorption in vitro” value with human osteoclasts is given as “inhibit bone resorption in vitro, with similar potency to Compound A”.

`CC[C@H](NC(=O)[C@H](CC(F)(F)CC1CC1)NCC(F)(F)Oc1ccc(F)cc1)C(=O)C(=O)NC1CC1` [Compound D, (S)-5-cyclopropyl-N-((S)-1-(cyclopropylamino)-1,2-dioxopentan-3-yl)-2-(2,2-difluoro-2-(4-fluorophenoxy)ethylamino)-4,4-difluoropentanamide]: the 50% inhibitory concentration (IC50) at Human cathepsin S was 0.267 nM; against Human Cathepsin V (setting [3]), less than 100 nM; on cathepsin B it was 23 nM; at cathepsin L (setting [3]) it was less than 100 nM. Besides, the inhibition at 0.1 µM stood at 63% against Human Cathepsin V and 75% at cathepsin L. Besides, the “cathepsin inhibitory profile on multiple cathepsin enzymes” value in [2] is “very favorable cathepsin inhibitory profile”. The “inhibition of bone resorption in vitro” value with human osteoclasts was “inhibit bone resorption in vitro, with similar potency to Compound A”.

`CC[C@H](NC(=O)[C@H](CCS(C)(=O)=O)N[C@@H](c1ccc(F)cc1)C(F)(F)F)C(=O)C(=O)NC1CC1` [Example 1, N-cyclopropyl-3S-{4-methanesulfonyl-2S-[2,2,2-trifluoro-1S-(4-fluoro-phenyl)-ethylamino]-butyrylamino}-2-oxo-pentanamide] registered a melting point of 152.5 to 153.5 °C.

By IC50 is commonly meant the concentration at which inhibition is half-maximal. A lower IC50 goes with higher potency. In general, inhibition refers to the drop in the measured response relative to a control, in per cent. High values mean a response far below the control, low ones a response near the control. As a reminder, the melting point is the temperature, or range, at which the solid turns liquid.
